Data set [1] deals with T1, Tubulin (Homo sapiens) (UniProt P68371+Q9H4B7+P0DPH7+P68366+Q13509+Q71U36+P04350+Q3ZCM7+P07437+P68363+Q9BQE3+Q6PEY2+Q13885+Q9BVA1+Q9BUF5). Nature of the data set: Disruption of microtubule network in human MCF7 cells assessed as chaotic microtubule network at 2 uM incubated for 48 hrs by DAPI staining based confocal laser scanning microscopic analysis. The class given is cell-based.

The species named for the next data set is Homo sapiens. Put plainly: Selectivity ratio of relative binding affinity for human ERalpha to relative binding affinity to human ERbeta.
The target of another data set is T2, Estrogen receptor (Homo sapiens, UniProt P03372).
T2 sequence (P03372 whole entry): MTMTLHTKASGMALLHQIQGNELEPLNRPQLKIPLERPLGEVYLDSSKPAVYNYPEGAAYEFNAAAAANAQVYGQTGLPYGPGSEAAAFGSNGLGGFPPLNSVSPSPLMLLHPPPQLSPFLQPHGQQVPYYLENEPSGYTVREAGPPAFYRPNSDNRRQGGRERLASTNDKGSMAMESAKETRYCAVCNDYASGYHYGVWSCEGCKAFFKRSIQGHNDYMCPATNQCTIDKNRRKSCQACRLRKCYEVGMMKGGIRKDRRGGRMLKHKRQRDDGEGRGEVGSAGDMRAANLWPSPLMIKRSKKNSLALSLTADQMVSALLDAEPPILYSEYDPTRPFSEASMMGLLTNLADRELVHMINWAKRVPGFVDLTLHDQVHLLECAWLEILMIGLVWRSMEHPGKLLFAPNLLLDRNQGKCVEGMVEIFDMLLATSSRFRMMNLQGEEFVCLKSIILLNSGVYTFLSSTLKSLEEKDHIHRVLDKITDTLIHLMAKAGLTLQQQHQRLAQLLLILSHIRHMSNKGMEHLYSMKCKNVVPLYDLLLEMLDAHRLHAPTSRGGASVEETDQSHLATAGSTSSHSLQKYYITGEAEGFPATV
Put plainly: Antagonist activity at ERalpha (unknown origin) expressed in HEK293T cells co-expressing ERbeta and ERE-luciferase reporter assessed as reduction in relative light unit incubated for 24 hrs by dual-luciferase reporter assay. The class given is cell-based. On the technique in general: A reporter such as luciferase makes a cellular process visible.

For data set [2], the target named is T3, Estrogen receptor (Homo sapiens) (UniProt P03372).
T3 sequence (whole entry): T2 sequence (P03372 whole entry)
Put plainly: Binding affinity to human ERalpha assessed as relative binding affinity incubated under vibration for 1 min followed by 2 hrs incubation under dark condition by fluorescence polarization assay relative to estradiol. To be noted: time 121.0 min. On the technique in general: Fluorescence polarisation rises when a labelled molecule tumbles more slowly, as on binding a larger partner.

Data set [3] relates to T47D. Put plainly: Antiproliferative activity against human T47D cells harboring ERalpha Y537S mutant assessed as inhibition of cell proliferation incubated for 72 hrs by CCK8 assay. The class given is functional, cell-based. On the technique in general: Tetrazolium assays rely on reduction of a dye to a coloured formazan, in cell work by metabolically active cells.
Data set [4] in a line: Antiproliferative activity against human Tamoxifen-resistant LCC2 cells assessed as inhibition of cell proliferation incubated for 72 hrs by CCK8 assay. The class given is functional, cell-based.
The test system of data set [5] is T47D. Nature of the data set: Antiproliferative activity against ERalpha positive human T47D cells assessed as inhibition of cell proliferation incubated for 72 hrs by CCK8 assay. The class given is functional, cell-based.
Data set [6] has as its target T1, Tubulin (Homo sapiens). Nature of the data set: Disruption of microtubule network in human LCC2 cells assessed as ruptured microtubule network at 4 uM incubated for 48 hrs by DAPI staining based confocal laser scanning microscopic analysis. The class given is cell-based.
In data set [7] the test system is T47D. Nature of the data set: Antiproliferative activity against human T47D cells harboring ERalpha D538G mutant assessed as inhibition of cell proliferation incubated for 72 hrs by CCK8 assay. The class given is functional, cell-based.
The subject of another data set is MDA-MB-231. Nature of the data set: Antiproliferative activity against ERalpha negative human MDA-MB-231 cells assessed as inhibition of cell proliferation incubated for 72 hrs by CCK8 assay. The class given is functional, cell-based. To be noted: MDA-MB-231, 72 h.
Data set [8] addresses T1, Tubulin (Homo sapiens). Put plainly: Inhibition of tubulin polymerization (unknown origin) at 30 uM incubated for 60 mins by microplate reader analysis. The class given is protein-complex assay.
A short description of data set [9]: Selectivity index, ratio of IC50 for cytotoxicity against human MCF-10A cells to IC50 for antiproliferative activity against human MCF7 cells. Conditions: MCF-10A cells and MCF7 cells, read-out: Ratio IC50. The class given is toxicity, cell-based.
In data set [10] the target is Estrogen receptor beta (Homo sapiens) (UniProt Q92731). Put plainly: Binding affinity to human ERbeta assessed as relative binding affinity incubated under vibration for 1 min followed by 2 hrs incubation under dark condition by fluorescence polarization assay relative to estradiol. Conditions: time 121.0 min.
For another data set, the system named is LCC2. Put plainly: Induction of cell cycle arrest in human LCC2 cells assessed as accumulation of cells at G2/M phase incubated for 48 hrs by flow cytometry analysis. The class given is functional, cell-based. To be noted: dose 6-24 µM.
In data set [11] the target is T1, Tubulin (Homo sapiens). Put plainly: Disruption of microtubule network in human MCF7 cells assessed as ruptured microtubule network at 2 uM incubated for 48 hrs by DAPI staining based confocal laser scanning microscopic analysis. The class given is cell-based.
In data set [12] the target is T1, Tubulin (Homo sapiens). Nature of the data set: Disruption of microtubule network in human LCC2 cells assessed as chaotic microtubule network at 4 uM incubated for 48 hrs by DAPI staining based confocal laser scanning microscopic analysis. The class given is cell-based.
Data set [13] can be described thus: Cytotoxicity against human MCF-10A cells assessed as inhibition of cell proliferation incubated for 72 hrs by CCK8 assay. The class given is toxicity, cell-based.
Data set [14] relates to MCF7. Nature of the data set: Antiproliferative activity against ERalpha positive human MCF7 cells assessed as inhibition of cell proliferation incubated for 72 hrs by CCK8 assay. The class given is functional, cell-based. Conditions: MCF7, 72 h.
In data set [15] the test system is MCF7. Nature of the data set: Induction of cell cycle arrest in human MCF7 cells assessed as increase in G2/M phase cells at 0 to 8 uM incubated for 48 hrs by flow cytometry analysis (reference value: 17.45%). The class given is functional. To be noted: dose 0-8 µM.
For data set [16], the system named is MCF7. Put plainly: Antitumor activity against human MCF7 cells xenografted in Balb/c nude mouse assessed as tumor growth inhibition at 4 mg/kg, ip administered every other day for 20 days relative to control. Conditions: MCF7, 480 h, time 20 day, read-out: TGI. The class given is functional.
Data set [17] in a line: Antitumor activity against human Tamoxifen-resistant LCC2 cells xenografted in Balb/c nude mouse assessed as tumor growth inhibition at 4 mg/kg, ip administered every other day for 20 days relative to control. To be noted: Tamoxifen-resistant LCC2 cell, 480 h, time 20 day, read-out: TGI. The class given is functional.

Molecules are shown by their SMILES. The source made the active and inactive calls. The rule behind the calls is not given here.

What is called IC50 is the midpoint of a concentration-inhibition curve.

Sequence of Estrogen receptor beta (Homo sapiens) (Q92731 whole entry): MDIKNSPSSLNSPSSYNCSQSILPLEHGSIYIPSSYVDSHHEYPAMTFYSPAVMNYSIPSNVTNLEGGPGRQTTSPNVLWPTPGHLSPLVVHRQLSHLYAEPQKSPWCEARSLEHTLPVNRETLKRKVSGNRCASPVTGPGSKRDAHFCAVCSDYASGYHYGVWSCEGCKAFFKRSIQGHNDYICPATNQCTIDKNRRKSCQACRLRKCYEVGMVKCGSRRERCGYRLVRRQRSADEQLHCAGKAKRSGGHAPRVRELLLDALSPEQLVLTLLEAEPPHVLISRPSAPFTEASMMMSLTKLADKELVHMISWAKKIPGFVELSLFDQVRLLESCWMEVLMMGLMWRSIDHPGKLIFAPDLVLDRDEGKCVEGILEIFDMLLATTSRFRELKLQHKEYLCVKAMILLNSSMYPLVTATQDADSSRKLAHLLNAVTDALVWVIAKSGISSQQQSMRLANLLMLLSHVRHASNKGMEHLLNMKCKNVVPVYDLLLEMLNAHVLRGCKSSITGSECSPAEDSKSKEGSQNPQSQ

For the compound `N#C[Se]CCCCCC(=O)Nc1ccc(C2=C(c3ccc(O)cc3)C3CC(S(=O)(=O)Oc4ccccc4F)C2O3)cc1` (stereo unspecified), the outcome at Tubulin (Homo sapiens) [1], at Tubulin (Homo sapiens) [6], at Tubulin (Homo sapiens) [11] and at Tubulin (Homo sapiens) [12] was Active. The Selectivity ratio in the data set listed under Homo sapiens turned out to be 44.5. The IC50 at Estrogen receptor was 1.01 µM; in the data set with T47D [3], 1.56 µM; in data set [4], 6.13 µM; with T47D [5], 0.85 µM; in the data set with T47D [7], 1.47 µM; in the data set with MDA-MB-231, 3.4 µM. In addition, the IC50 in the data set on MCF7 [14] was 0.28 µM. In addition, the RBA in [2] came out at 17.4%; in data set [10], 0.39%. The “tubulin polymerization inhibition (active/not active)” value on Tubulin (Homo sapiens) [8] is “Active”. In addition, the selectivity ratio in data set [9] came to 63. Further, the Activity result was “Dose-Dependent Effect” with LCC2 and 27.55% in the data set with MCF7 [15]. Moreover, the IC50 at 72 h in data set [13] was determined as 17.6 µM.
For `CC/C(=C(\c1ccccc1)c1ccc(OCCN(C)C)cc1)c1ccccc1` [TAMOXIFEN], the inhibition in vivo at 4 mg/kg is 71.4% in the data set on MCF7 [16] and 6.25% in [17].

For the origin of these results see ChEMBL document CHEMBL5360672, “Identification of Novel Dual-Target Estrogen Receptor α Degraders with Tubulin Inhibitory Activity for the Treatment of Endocrine-Resistant Breast Cancer” (J Med Chem, 2023).
